Data: article PMC8386742, “Discovery of N-aryl sulphonamide-quinazoline derivatives as anti-gastric cancer agents in vitro and in vivo via activating the Hippo signalling pathway” (Journal of Enzyme Inhibition and Medicinal Chemistry, 2021)

Tests used:
[1] = test system: MGC-803 cells; assay: MTT antiproliferative assay, MGC-803 cells; assay type: cell-based, human; conditions: Homo sapiens, MGC-803, 48 h, exposure for 48 h
Method: (§1) The in vitro antiproliferative activities of new target compounds 6a–6g, 9a–9i, 10a–10j, 11a–11j, and 14a–14d were evaluated against four human cancer cell lines (MGC-803, PC-3, HCT-116, and MCF-7) using MTT assay and 5-FU as a positive drug. The following Tables 1–[4] depicted the results of in vitro antiproliferative activity.
(§2) Cell lines used were cultured in humidified incubator in a humidified atmosphere of 5% CO2 and 95% air. The RPMI-1640 medium was supplemented with 10% foetal bovine serum, penicillin (100 U/ml) and streptomycin (0.1 mg/ml).
(§3) Cell lines were seeded into 96-well plates and incubated for 24 h. Then cells were treated with different concentrations of compounds. And after another 48 h, MTT reagent (20 μL per well) was added to each well and then incubated at 37 °C for 4 h. After the suspension was discarded, formazan was then dissolved with DMSO. Absorbencies of formazan solution were measured at 490 nm. The IC50 values of tested compounds were calculated by SPSS version 17.0.

[2] = test system: HCT-116 cells; assay: MTT antiproliferative assay, HCT-116 cells; assay type: cell-based, human; conditions: Homo sapiens, HCT-116, 48 h, exposure for 48 h
Method: as §1, §2, §3

[3] = test system: PC-3 cells; assay: MTT antiproliferative assay, PC-3 cells; assay type: cell-based, human; conditions: Homo sapiens, PC-3, exposure for 48 h
Method: as §1, §2, §3

[4] = test system: MCF-7 cells; assay: MTT antiproliferative assay, MCF-7 cells; assay type: cell-based, human; conditions: Homo sapiens, MCF7, 48 h, exposure for 48 h
Method: as §1, §2, §3

Row | SMILES | IC50 [1] | IC50 [2] | IC50 [3] | IC50 [4] | melting point
1 | COc1cc(N(Cc2nc(C)c3ccccc3n2)C(=O)c2ccc(C(C)(C)C)cc2)cc(OC)c1OC [Compound 11g, 4-(Tert-butyl)-N-((4-methylquinazolin-2-yl)methyl)-N-(3,4,5-trimethoxyphenyl) benzamide] | > 40 µM | > 40 µM | > 40 µM | > 40 µM | 117 to 118 °C
2 | COc1ccc(S(=O)(=O)N(Cc2nc(C)c3ccccc3n2)c2cc(OC)c(OC)c(OC)c2)cc1OC [Compound 10h, 3,4-Dimethoxy-N-((4-methylquinazolin-2-yl)methyl)-N-(3,4,5-trimethoxyphenyl)benzene-sulfonamide] | 14.2 ± 1.03 µM | 22.9 ± 1.34 µM | 36.6 ± 0.34 µM | 18.5 ± 0.81 µM | 129 to 130 °C
3 | COc1ccc(S(=O)(=O)N(Cc2nc(C)c3ccccc3n2)c2ccccc2)cc1 [Compound 14a, 4-Methoxy-N-((4-methylquinazolin-2-yl)methyl)-N-phenylbenzene-sulphonamide] | 44.6 ± 1.41 µM | 46.9 ± 1.84 µM | > 50 µM | > 50 µM | 85 to 86 °C
4 | COc1ccc(CN(c2cc(OC)c(OC)c(OC)c2)S(=O)(=O)c2ccccc2)cc1 [Compound 6d] | > 40 µM | > 40 µM | > 40 µM | > 40 µM | –
5 | COc1ccc(S(=O)(=O)N(Cc2ccc(C)cc2)c2cc(OC)c(OC)c(OC)c2)cc1 [Compound 9d, 4-Methoxy-N-(4-methylbenzyl)-N-(3,4,5-trimethoxyphenyl) benzene-sulphonamide] | 5.83 ± 1.75 µM | 11.9 ± 2.26 µM | 15.6 ± 1.57 µM | 41.8 ± 0.43 µM | 164 to 165 °C
6 | COc1ccc(S(=O)(=O)N(Cc2ccc(OC)c(OC)c2)c2cc(OC)c(OC)c(OC)c2)cc1 [Compound 9e, N-(3,4-dimethoxybenzyl)-4-methoxy-N-(3,4,5-trimethoxyphenyl) benzene-sulphonamide] | 7.92 ± 2.26 µM | 8.6 ± 2.85 µM | 10.2 ± 0.52 µM | 22.9 ± 1.82 µM | 136 to 137 °C
7 | COc1cc(N(Cc2nc(C)c3ccccc3n2)S(=O)(=O)c2cccs2)cc(OC)c1OC [Compound 10i, N-((4-Methylquinazolin-2-yl)methyl)-N-(3,4,5-trimethoxyphenyl)thiophene-2-sulphonamide] | 16.8 ± 1.42 µM | 20.4 ± 1.92 µM | 27.8 ± 2.02 µM | 30.2 ± 1.81 µM | 151 to 152 °C
8 | COc1cc(N(Cc2nc(C)c3ccccc3n2)S(=O)(=O)c2ccccn2)cc(OC)c1OC [Compound 10j, N-((4-Methylquinazolin-2-yl)methyl)-N-(3,4,5-trimethoxyphenyl)pyridine-2-sulphonamide] | 14.7 ± 1.88 µM | 24.8 ± 2.13 µM | 28.2 ± 1.98 µM | 34.2 ± 1.83 µM | 159 to 160 °C
9 | COc1ccc(S(=O)(=O)N(Cc2c(C)noc2C)c2cc(OC)c(OC)c(OC)c2)cc1 [Compound 9h, N-((3,5-dimethylisoxazol-4-yl)methyl)-4-methoxy-N-(3,4,5-trimethoxyphenyl) benzene-sulfonamide] | 5.48 ± 0.58 µM | 12.1 ± 0.85 µM | 8.28 ± 3.4 µM | 11.5 ± 1.03 µM | –
10 | COc1cc(N(Cc2nc(C)c3ccccc3n2)C(=O)c2ccccc2Cl)cc(OC)c1OC [Compound 11d, 2-Chloro-N-((4-methylquinazolin-2-yl)methyl)-N-(3,4,5-trimethoxyphenyl) benzamide] | > 40 µM | > 40 µM | > 40 µM | > 40 µM | 190 to 191 °C
11 | COc1cc(N(Cc2nc(C)c3ccccc3n2)C(=O)c2ccc(F)cc2)cc(OC)c1OC [Compound 11b, 4-Fluoro-N-((4-methylquinazolin-2-yl)methyl)-N-(3,4,5-trimethoxyphenyl) benzamide] | 14.1 ± 1.01 µM | 18.9 ± 1.23 µM | 31.1 ± 2.04 µM | 29.7 ± 1.83 µM | 162 to 163 °C
12 | COc1ccc(CN(c2cc(OC)c(OC)c(OC)c2)S(=O)(=O)c2cccnc2)cc1 [Compound 6g, N-(4-methoxybenzyl)-N-(3,4,5-trimethoxyphenyl) pyridine-3-sulphonamide] | 38.2 ± 1.55 µM | > 40 µM | 16.9 ± 1.58 µM | > 40 µM | 162 to 163 °C
13 | COc1ccc(S(=O)(=O)N(Cc2ccc(Br)cc2)c2cc(OC)c(OC)c(OC)c2)cc1 [Compound 9c, N-(4-bromobenzyl)-4-methoxy-N-(3,4,5-trimethoxyphenyl) benzene-sulphonamide] | 31.1 ± 0.79 µM | > 50 µM | 28 ± 2.76 µM | 33.8 ± 1.39 µM | 187 to 188 °C
14 | COc1ccc(C(=O)N(Cc2nc(C)c3ccccc3n2)c2cc(OC)c(OC)c(OC)c2)cc1 [Compound 11h, 4-Methoxy-N-((4-methylquinazolin-2-yl)methyl)-N-(3,4,5-trimethoxyphenyl) benzamide] | 5.82 ± 1.17 µM | 10.4 ± 1.04 µM | 18.7 ± 1.38 µM | 22.4 ± 1.54 µM | –
15 | COc1cc(N(Cc2nc(C)c3ccccc3n2)C(=O)c2c(C)cc(C)cc2C)cc(OC)c1OC [Compound 11f, 2,4,6-Trimethyl-N-((4-methylquinazolin-2-yl)methyl)-N-(3,4,5-trimethoxyphenyl) benzamide] | 32.8 ± 2.12 µM | 28.5 ± 2.64 µM | > 40 µM | > 40 µM | 209 to 210 °C
16 | COc1ccc(S(=O)(=O)N(Cc2nc(C)c3ccccc3n2)c2ccc(C)cc2)cc1 [Compound 14d, 4-Methoxy-N-((4-methylquinazolin-2-yl)methyl)-N-(p-tolyl)benzene-sulphonamide] | 42.2 ± 2.44 µM | > 50 µM | 45.7 ± 2.88 µM | > 50 µM | 129 to 130 °C
17 | COc1cc(N(Cc2nc(C)c3ccccc3n2)C(=O)c2ccccc2)cc(OC)c1OC [Compound 11a, N-((4-Methylquinazolin-2-yl)methyl)-N-(3,4,5-trimethoxyphenyl) benzamide] | 18.5 ± 1.17 µM | 19.8 ± 1.49 µM | 25.3 ± 1.78 µM | 25.3 ± 1.78 µM | 112 to 113 °C
18 | COc1cc(N(Cc2nc(C)c3ccccc3n2)C(=O)c2cccs2)cc(OC)c1OC [Compound 11j, N-((4-methylquinazolin-2-yl)methyl)-N-(3,4,5-trimethoxyphenyl)thiophene-2-carboxamide] | 14.7 ± 1.88 µM | 24.8 ± 2.13 µM | > 40 µM | > 40 µM | 136 to 137 °C
19 | COc1ccc(S(=O)(=O)N(Cc2ccc(Cl)cc2)c2cc(OC)c(OC)c(OC)c2)cc1 [Compound 9b, N-(4-chlorobenzyl)-4-methoxy-N-(3,4,5-trimethoxyphenyl) benzene-sulphonamide] | 19.2 ± 1.07 µM | 23 ± 5.25 µM | 36.1 ± 0.01 µM | 23.4 ± 1.53 µM | 172 to 173 °C
20 | COc1ccc(CN(c2cc(OC)c(OC)c(OC)c2)S(=O)(=O)c2cccs2)cc1 [Compound 6f, N-(4-methoxybenzyl)-N-(3,4,5-trimethoxyphenyl) thiophene-2-sulphonamide] | 28.3 ± 2.86 µM | 38.1 ± 2.64 µM | 38.7 ± 2.87 µM | 26.1 ± 1.87 µM | –
21 | COc1ccc(CN(c2cc(OC)c(OC)c(OC)c2)S(=O)(=O)c2ccc(C)cc2)cc1 [Compound 6c] | 4.32 ± 0.65 µM | 6.18 ± 0.61 µM | 8.81 ± 0.98 µM | 11.2 ± 1.02 µM | –
22 | COc1cc(N(Cc2nc(C)c3ccccc3n2)C(=O)c2ccc(C)cc2)cc(OC)c1OC [Compound 11e, 4-Methyl-N-((4-methylquinazolin-2-yl)methyl)-N-(3,4,5-trimethoxyphenyl) benzamide] | 10.8 ± 1.18 µM | – | 24.9 ± 1.41 µM | 18.6 ± 1.32 µM | 196 to 197 °C
